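Cells were grown in 96-well plates and exposed to each compound for 48 hours at five concentrations; endpoints were interpolated linearly between bracketing concentrations, or set to the highest concentration if not reached. Here, GI50 denotes the concentration required for 50% inhibition of growth.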 Active and inactive are the calls of the source. No stated cut-off is given here; in the data, active = GI50 up to about 1.1 µM and inactive = higher.
Assays:
Test in all cases: DTP human tumour cell line panel, 48 h
NCI-H23 = system: NCI-H23
NCI-H460 = system: NCI-H460
HOP-92 = system: HOP-92
NCI-H522 = system: NCI-H522
HL-60 = system: HL-60
HOP-62 = system: HOP-62
OVCAR-5 = system: OVCAR-5
SK-MEL-5 = system: SK-MEL-5
MOLT-4 = system: MOLT-4
SK-OV-3 = system: SK-OV-3
MCF7 = system: MCF7
CCRF-CEM = system: CCRF-CEM
SW-620 = system: SW-620
SNB-19 = system: SNB-19
Hs-578T = system: Hs-578T
OVCAR-4 = system: OVCAR-4
SF-268 = system: SF-268
HCT-15 = system: HCT-15
OVCAR-3 = system: OVCAR-3
DU-145 = system: DU-145

Compound | GI50 (NCI-H23) | GI50 (NCI-H460) | GI50 (HOP-92) | GI50 (NCI-H522) | GI50 (HL-60) | GI50 (HOP-62) | GI50 (OVCAR-5) | GI50 (SK-MEL-5) | GI50 (MOLT-4) | GI50 (SK-OV-3) | GI50 (MCF7) | GI50 (CCRF-CEM) | GI50 (SW-620) | GI50 (SNB-19) | GI50 (Hs-578T) | GI50 (OVCAR-4) | GI50 (SF-268) | GI50 (HCT-15) | GI50 (OVCAR-3) | GI50 (DU-145)
CC(=O)Nc1ccc2nc(-c3cccc(Cl)c3)cc(O)c2c1 | 35.6 µM (inactive) | > 10 µM (inactive) | 4.85 µM (inactive) | 3.1 µM (inactive) | 8.34 µM (inactive) | 65 µM (inactive) | 68.4 µM (inactive) | 4.93 µM (inactive) | 5.35 µM (inactive) | 0.787 µM (active) | 3.77 µM (inactive) | 3.44 µM (inactive) | 4.41 µM (inactive) | 7.62 µM (inactive) | 2.59 µM (inactive) | – | – | – | – | –
O=c1oc2ccc3ccccc3c2cc1-c1nc2ccc([N+](=O)[O-])cc2o1 | 41.2 µM (inactive) | 36.1 µM (inactive) | 33.6 µM (inactive) | 18.9 µM (inactive) | 34.7 µM (inactive) | 10.6 µM (inactive) | > 100 µM (inactive) | 10.3 µM (inactive) | > 67.6 µM (inactive) | > 30.4 µM (inactive) | – | 75.2 µM (inactive) | > 100 µM (inactive) | 13.8 µM (inactive) | 56.6 µM (inactive) | 22.5 µM (inactive) | 20.5 µM (inactive) | 69 µM | > 100 µM (inactive) | > 58.6 µM (inactive)
COC1=C[C@]2(CCC(=O)O2)[C@@H]2Cc3ccccc3[C@H](O)[C@@H]2C1=O | 40.3 µM (inactive) | 85.9 µM (inactive) | 78.3 µM (inactive) | 21.7 µM (inactive) | 25.7 µM (inactive) | 69.3 µM (inactive) | > 100 µM (inactive) | 17.5 µM (inactive) | 17.9 µM (inactive) | > 100 µM (inactive) | 44 µM (inactive) | 15.1 µM (inactive) | 28.4 µM (inactive) | > 100 µM (inactive) | > 100 µM (inactive) | 43.2 µM (inactive) | 68.9 µM (inactive) | 41.1 µM | 28.5 µM (inactive) | –
N#Cc1ccc(-c2nc3cc(Cl)ccc3[nH]2)cc1 | – | – | > 100 µM (inactive) | 32.4 µM (inactive) | 13 µM (inactive) | > 100 µM (inactive) | – | 37.8 µM (inactive) | 23.1 µM (inactive) | > 100 µM (inactive) | 63 µM (inactive) | 41.2 µM (inactive) | > 100 µM (inactive) | > 100 µM (inactive) | > 100 µM (inactive) | – | – | 39.9 µM | 54.7 µM (inactive) | –
CCOC(=O)c1c(N)sc2c1C(C(=O)OCC)CCCC2 (centres undefined) | 62.1 µM (inactive) | 35.2 µM (inactive) | 75.5 µM (inactive) | – | 26.2 µM (inactive) | > 100 µM (inactive) | > 100 µM (inactive) | 75.2 µM (inactive) | 29.6 µM (inactive) | – | > 100 µM (inactive) | – | > 100 µM (inactive) | 71.6 µM (inactive) | 43.9 µM (inactive) | – | – | 67.3 µM | – | –
Nc1cc(N2CCCC2)nc(=O)n1Cc1ccccc1 | > 100 µM (inactive) | > 100 µM (inactive) | > 100 µM (inactive) | > 100 µM (inactive) | > 100 µM (inactive) | > 100 µM (inactive) | > 100 µM (inactive) | > 100 µM (inactive) | > 100 µM (inactive) | – | > 100 µM (inactive) | > 100 µM (inactive) | > 100 µM (inactive) | > 100 µM (inactive) | – | > 100 µM (inactive) | 39.5 µM (inactive) | > 100 µM | – | > 100 µM (inactive)
O=C(CCNC12CC3CC(CC(C3)C1)C2)c1ccccc1 | 20.1 µM (inactive) | 19.6 µM (inactive) | 20.4 µM (inactive) | 17.3 µM (inactive) | 10.3 µM (inactive) | – | 21.2 µM (inactive) | 17.9 µM (inactive) | 13.1 µM (inactive) | – | 19.3 µM (inactive) | 11.6 µM (inactive) | 17.3 µM (inactive) | 47 µM (inactive) | – | 36.8 µM (inactive) | 24.6 µM (inactive) | 16.5 µM | > 10 µM (inactive) | 24.8 µM (inactive)

Reference: ChEMBL document CHEMBL1201862, “PubChem BioAssay data set” (2004)
